Where two headings read alike, the source gives them in different places.
Experiments:
Clostridium diaphorase = test: Fluorescent NADH detection assay, Clostridium diaphorase; type: biochemical; details: for FLUs: 1 u/ml Clostridium diaphorase; for Fluorescence time course, Clostridium: 10 uM NADH
Method: Each fluorescent substrate (PBI-4412, 4413, 4440, and 4441) was incubated at 920 μM with 0 μM or 10 μM NADH (Sigma) or a titration of NADH (Table 8) and 1 u/ml rat diaphorase (Sigma) or 1 u/ml Clostridium diaphorase (Sigma) in a volume of 100 μl in 50 mM Tris pH 7.5. Single reactions were prepared in the wells of a 96-well black plate at room temperature. Fluorescence was monitored over the course of two hours at excitation and emission wavelengths of 485 and 527, respectively, using a fluorescence plate reader. […] Table 7 and FIGS. 24a-b show the reaction time course with each substrate with 10 uM NADH. Table 8 and FIG. 25 show the NADH titration at 60 minutes with PBI-4440 and 4412 with rat diaphorase.

HeLa cells = test: Fluorescent imaging of live cells; type: cell-based; details: 10 μM substrate
Method: HeLa cells were plated at 40,000 cell/well into wells of an 8-well chambered coverslip and incubated at 37° C.+5% CO2. The media (DMEM) was replaced with warm complete media (with 10% FBS) containing 10 μM PBI-4412, 4413, 4440 or 4441. Cells were then transferred to a confocal microscope for imaging using 10% λ488 nm laser power (4412, 4413, and 4441) or 5% laser power (4440). All images (FIGS. 6a-d) are at 30× magnification.

HEK293 cells = test: Measuring metabolically active cells with quinone fluorescein derivatives; type: cell-based; details: HEK293 cell dilutions; 60 minutes; 480ex/530em
Method: i. Two-fold serial dilutions of HEK293 cells were prepared in full DMEM media, and 100 μl per well were transferred into wells of 96-well plates. Compounds PBI 4440 and 4412 were diluted in full DMEM media to make 20 μM and 10 μM stocks, respectively. 100 μl of the prepared compound stocks were added to the cells, and the cells were incubated for 60 minutes in a 37° C., 5% CO2 incubator. Following incubation, the cells were removed from incubator, and fluorescence measured with Tecan Infinite 500 at 480ex/Em530em wavelength.

rat diaphorase = molecular target: T1, rat diaphorase (Rattus norvegicus, UniProt P05982); type: biochemical; details: for Fluorescence time course, Rat: 10 uM NADH
T1 construct: purchased Sigma
T1 sequence (P05982 2-274 limits assumed): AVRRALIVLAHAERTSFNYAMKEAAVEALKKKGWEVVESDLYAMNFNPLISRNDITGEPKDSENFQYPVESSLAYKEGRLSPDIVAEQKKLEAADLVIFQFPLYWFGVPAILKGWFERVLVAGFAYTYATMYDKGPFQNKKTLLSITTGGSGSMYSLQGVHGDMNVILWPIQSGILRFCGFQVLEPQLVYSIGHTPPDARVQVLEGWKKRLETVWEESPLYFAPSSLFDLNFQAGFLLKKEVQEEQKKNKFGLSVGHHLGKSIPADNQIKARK

[1] = 10 μM NADH, 60 min, substrate 920 μM
[2] = 0 μM NADH, 60 min, 1 u/ml rat diaphorase
[3] = 10 μM NADH, 60 min, 1 u/ml rat diaphorase, substrate 920 μM
[4] = NADH 0 μM, 60 minutes, rat diaphorase
[5] = NADH 1.25 μM, 60 minutes, rat diaphorase
[6] = NADH 2.5 μM, 60 minutes, rat diaphorase
[7] = NADH 5 μM, 60 minutes, rat diaphorase
[8] = NADH 10 μM, 60 minutes, rat diaphorase
[9] = NADH 20 μM, 60 minutes, rat diaphorase
[10] = NADH 40 μM, 60 minutes, rat diaphorase
[11] = NADH 80 μM, 60 minutes, rat diaphorase

SMILES: CC1=CC(=O)C(C)=C(C(C)(C)CC(=O)N(C)CCN(C)C(=O)Oc2ccc3c(c2)Oc2cc(O)ccc2C32OC(=O)c3ccccc32)C1=O (stereo not shown) [PBI 4412, Mono-quinone trimethyllock diamine fluorescein]
- FLUs (Clostridium diaphorase; 0 μM NADH, 60 min): 3940 FLUs
- FLUs (Clostridium diaphorase; [1]): 125352 FLUs
- Fluorescence time course, Clostridium (Clostridium diaphorase; 2 min): 9933 FLUs
- Fluorescence time course, Clostridium (Clostridium diaphorase; 4 min): 24883 FLUs
- Fluorescence time course, Clostridium (Clostridium diaphorase; 5 min): 33881 FLUs
- Fluorescence time course, Clostridium (Clostridium diaphorase; 10 min): 60458 FLUs
- Fluorescence time course, Clostridium (Clostridium diaphorase; 20 min): 95260 FLUs
- Fluorescence time course, Clostridium (Clostridium diaphorase; 30 min): 112465 FLUs
- Fluorescence time course, Clostridium (Clostridium diaphorase; 40 min): 120688 FLUs
- Fluorescence time course, Clostridium (Clostridium diaphorase; 50 min): 123934 FLUs
- Fluorescence time course, Clostridium (Clostridium diaphorase; 60 min): 125352 FLUs
- Fluorescence time course, Clostridium (Clostridium diaphorase; 70 min): 126364 FLUs
- Fluorescence time course, Clostridium (Clostridium diaphorase; 80 min): 125242 FLUs
- Fluorescence time course, Clostridium (Clostridium diaphorase; 90 min): 124786 FLUs
- Fluorescence time course, Clostridium (Clostridium diaphorase; 100 min): 124434 FLUs
- Fluorescence time course, Clostridium (Clostridium diaphorase; 110 min): 124460 FLUs
- Fluorescence time course, Clostridium (Clostridium diaphorase; 120 min): 124182 FLUs
- reduction of substrate in live cells (confocal images) (HeLa cells): only reduced once inside cells
- relationship of fluorescence to cell number (HEK293 cells): linear correlation between cell number and fluorescence
- FLUs (rat diaphorase; [2]): 3772 FLUs
- FLUs (rat diaphorase; [3]): 170571 FLUs
- Fluorescence time course, Rat (rat diaphorase; 2 min): 10099 FLUs
- Fluorescence time course, Rat (rat diaphorase; 4 min): 24171 FLUs
- Fluorescence time course, Rat (rat diaphorase; 5 min): 33247 FLUs
- Fluorescence time course, Rat (rat diaphorase; 10 min): 62502 FLUs
- Fluorescence time course, Rat (rat diaphorase; 20 min): 106834 FLUs
- Fluorescence time course, Rat (rat diaphorase; 30 min): 133278 FLUs
- Fluorescence time course, Rat (rat diaphorase; 40 min): 151941 FLUs
- Fluorescence time course, Rat (rat diaphorase; 50 min): 162636 FLUs
- Fluorescence time course, Rat (rat diaphorase; 60 min): 170571 FLUs
- Fluorescence time course, Rat (rat diaphorase; 70 min): 175380 FLUs
- Fluorescence time course, Rat (rat diaphorase; 80 min): 177516 FLUs
- Fluorescence time course, Rat (rat diaphorase; 90 min): 178423 FLUs
- Fluorescence time course, Rat (rat diaphorase; 100 min): 180027 FLUs
- Fluorescence time course, Rat (rat diaphorase; 110 min): 182051 FLUs
- Fluorescence time course, Rat (rat diaphorase; 120 min): 181077 FLUs
- FLUs (rat diaphorase; [4]): 3772 FLUs
- FLUs (rat diaphorase; [5]): 26228 FLUs
- FLUs (rat diaphorase; [6]): 51005 FLUs
- FLUs (rat diaphorase; [7]): 97995 FLUs
- FLUs (rat diaphorase; [8]): 170571 FLUs
- FLUs (rat diaphorase; [9]): 183286 FLUs
- FLUs (rat diaphorase; [10]): 185532 FLUs
- FLUs (rat diaphorase; [11]): 183372 FLUs

SMILES: CC1=C(C)C(=O)C(C(C)(C)CC(=O)N(C)CCN(C)C(=O)Oc2ccc3c(c2)Oc2cc(O)ccc2C32OC(=O)c3ccccc32)=C(C)C1=O (stereo not shown) [PBI 4440, Mono-quinone trimethyllock diamine fluorescein]
- FLUs (Clostridium diaphorase; 0 μM NADH, 60 min): 3050 FLUs
- FLUs (Clostridium diaphorase; [1]): 43362 FLUs
- Fluorescence time course, Clostridium (Clostridium diaphorase; 2 min): 3611 FLUs
- Fluorescence time course, Clostridium (Clostridium diaphorase; 4 min): 7197 FLUs
- Fluorescence time course, Clostridium (Clostridium diaphorase; 5 min): 10142 FLUs
- Fluorescence time course, Clostridium (Clostridium diaphorase; 10 min): 20624 FLUs
- Fluorescence time course, Clostridium (Clostridium diaphorase; 20 min): 33781 FLUs
- Fluorescence time course, Clostridium (Clostridium diaphorase; 30 min): 39807 FLUs
- Fluorescence time course, Clostridium (Clostridium diaphorase; 40 min): 42268 FLUs
- Fluorescence time course, Clostridium (Clostridium diaphorase; 50 min): 43000 FLUs
- Fluorescence time course, Clostridium (Clostridium diaphorase; 60 min): 43362 FLUs
- Fluorescence time course, Clostridium (Clostridium diaphorase; 70 min): 43750 FLUs
- Fluorescence time course, Clostridium (Clostridium diaphorase; 80 min): 43425 FLUs
- Fluorescence time course, Clostridium (Clostridium diaphorase; 90 min): 43468 FLUs
- Fluorescence time course, Clostridium (Clostridium diaphorase; 100 min): 43296 FLUs
- Fluorescence time course, Clostridium (Clostridium diaphorase; 110 min): 43005 FLUs
- Fluorescence time course, Clostridium (Clostridium diaphorase; 120 min): 43150 FLUs
- reduction of substrate in live cells (confocal images) (HeLa cells): only reduced once inside cells
- relationship of fluorescence to cell number (HEK293 cells): linear correlation between cell number and fluorescence
- FLUs (rat diaphorase; [2]): 2922 FLUs
- FLUs (rat diaphorase; [3]): 180909 FLUs
- Fluorescence time course, Rat (rat diaphorase; 2 min): 6473 FLUs
- Fluorescence time course, Rat (rat diaphorase; 4 min): 18626 FLUs
- Fluorescence time course, Rat (rat diaphorase; 5 min): 28997 FLUs
- Fluorescence time course, Rat (rat diaphorase; 10 min): 73216 FLUs
- Fluorescence time course, Rat (rat diaphorase; 20 min): 133999 FLUs
- Fluorescence time course, Rat (rat diaphorase; 30 min): 161355 FLUs
- Fluorescence time course, Rat (rat diaphorase; 40 min): 173345 FLUs
- Fluorescence time course, Rat (rat diaphorase; 50 min): 178374 FLUs
- Fluorescence time course, Rat (rat diaphorase; 60 min): 180909 FLUs
- Fluorescence time course, Rat (rat diaphorase; 70 min): 182618 FLUs
- Fluorescence time course, Rat (rat diaphorase; 80 min): 182416 FLUs
- Fluorescence time course, Rat (rat diaphorase; 90 min): 182263 FLUs
- Fluorescence time course, Rat (rat diaphorase; 100 min): 181996 FLUs
- Fluorescence time course, Rat (rat diaphorase; 110 min): 182253 FLUs
- Fluorescence time course, Rat (rat diaphorase; 120 min): 182132 FLUs
- FLUs (rat diaphorase; [4]): 2922 FLUs
- FLUs (rat diaphorase; [5]): 24788 FLUs
- FLUs (rat diaphorase; [6]): 50387 FLUs
- FLUs (rat diaphorase; [7]): 99331 FLUs
- FLUs (rat diaphorase; [8]): 180909 FLUs
- FLUs (rat diaphorase; [9]): 309004 FLUs
- FLUs (rat diaphorase; [10]): 304293 FLUs
- FLUs (rat diaphorase; [11]): 305861 FLUs

Reference: patent publication US9951372B2, “Compounds and methods for assaying redox state of metabolically active cells and methods for measuring NAD(P)/NAD(P)H” (PROMEGA CORPORATION, priority 2011, dated 2018)
